Laboratory results as given in patent US11505558B1, “Antiviral heterocyclic compounds” (Enanta Pharmaceuticals, Inc., priority 2019, dated 2022).

Columns and labels:
HRSV = settings: prophylactic use, high risk infants; cited from earlier work
[1] = tested on: genotype A, "Long" strain RSV; experiment: RSV-A assay (CPE, ATPlite readout in Hep-2 cells); type: cell-based; settings: human respiratory syncytial virus, HEp-2, Hep-2 cells, genotype A "Long" strain RSV, MOI 0.1; read-out: Human RSV-A (“Long” strain) EC50
In short: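 Protection from RSV-induced cytopathic effect, measured as ATPlite luminescence after 5 days, gave EC50 values. Assay used genotype A Long strain at MOI 0.1 on Hep-2 cells seeded at 8,000/well in DMEM growth media with 10% FBS; compounds tested as 2-fold dilutions in duplicate.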

[2] = tested on: recombinant HMPV CAN97-83 (MPV-GFP1); experiment: HMPV antiviral assay (MPV-GFP1 eGFP fluorescence in Vero E6 cells); type: cell-based; settings: human metapneumovirus, Vero C1008, 120 h, read-out: HMPV EC50
In short: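 Vero E6 cells in serum-free OptiMEM with 0.5 μg/mL TPCK-trypsin infected with eGFP-expressing HMPV CAN97-83 (MPV-GFP1) at MOI 0.05. 8-point […] ½-step dilutions from 8 or 2 μM, 0.5% DMSO, 5 days at 32 °C. eGFP fluorescence normalized to infected untreated wells; EC50 from four-parameter logistic fit.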

Row | Compound | effective in reducing hospitalizations (HRSV) [%] | EC50 [1] [nM] | EC50 [2] [nM]
1 | Palivizumab | 60 |  | 
2 | Cc1cnc2c(NC(=O)C3(F)CC3)cc(C(=O)NC[C@](O)(c3cc4c(c(-c5ccc(F)cc5)n3)OC[C@]4(C)C(N)=O)C(F)(F)F)cc2c1 [Example 553] |  | < 200 | < 500
3 | C[C@]1(C(N)=O)COc2c1cc([C@](O)(CNC(=O)c1cc(OC3CC3)c3ncccc3c1)C(F)(F)F)nc2-c1ccc(F)c(Cl)c1 [Example 79] |  | < 200 | < 500
4 | Cn1cc2cc(C(=O)NC[C@](O)(c3cc4c(c(-c5ccc(F)cc5)n3)OC[C@]4(C)C(=O)NCC(C)(C)O)C3CC3)ccc2n1 [Example 642] |  | < 200 | > 500
5 | C[C@]1(C(N)=O)COc2c1cc([C@@](O)(CNC(=O)c1cc(OC3CC3)c3nc(N)sc3c1)C(F)(F)F)nc2-c1ccc(F)c(Cl)c1 [Example 544] |  | < 200 | < 500
6 | Cc1cnc2c(Nc3cccnn3)cc(C(=O)NC[C@](O)(c3cc4c(c(-c5ccc(F)cc5)n3)OC[C@]4(C)C(N)=O)C(F)(F)F)cc2c1 [Example 560] |  | < 200 | < 500
7 | Cc1nc2ccc(C(=O)NC[C@](O)(c3cc4c(c(-c5ccc(F)cc5)n3)OC[C@]4(C)C(N)=O)C(F)(F)F)cc2o1 [Example 424] |  | < 200 | < 500
8 | COc1nccc(C(=O)NC[C@](O)(c2cc3c(c(-c4ccc(F)cc4)n2)OC[C@]3(C)CNCC2CC2)C(F)(F)F)n1 [Example 34] |  | > 200 | > 500
9 | COc1cc(C(=O)NC[C@](O)(c2cc3c(c(-c4ccc(F)cc4)n2)OCC3(F)C(N)=O)C(F)(F)F)cc2cn(C(F)F)nc12 (stereo partly shown) [Example 670] |  | < 200 | < 500
10 | C[C@]1(C(N)=O)COc2c1cc([C@@](O)(CNC(=O)c1cc(OC3CC3)c3ncccc3c1)C1CC1)nc2-c1ccc(F)cc1 [Example 280] |  | < 200 | < 500
11 | C[C@]1(C(N)=O)COc2c1cc([C@](O)(CNC(=O)c1cc(OC3CC3)c3ncccc3c1)C(F)(F)F)nc2-c1ccc(F)c(C#N)c1 [Example 84] |  | > 200 | > 500
12 | C[C@]1(C(=O)NC[C@H](O)CO)COc2c1cc([C@@](O)(CNC(=O)c1cc(OC3CC3)c3ncccc3c1)C(F)(F)F)nc2-c1ccc(F)cc1 [Example 493] |  | < 200 | > 500
13 | Cc1ccc2cc(C(=O)NC[C@](O)(c3cc4c(c(-c5ccc(F)cc5)n3)OC[C@]4(C)C(N)=O)C(F)(F)F)cc(NC(=O)C3CC3)c2n1 [Example 626] |  | < 200 | > 500
14 | C[C@]1(C(N)=O)COc2c1cc([C@@](O)(CNC(=O)c1ccc(OC3CC3)c(-c3ncco3)c1)C(F)(F)F)nc2-c1ccc(F)cc1 [Example 124] |  | < 200 | > 500
15 | Cc1ncc(-c2cc(C(=O)NC[C@](O)(c3cc4c(c(-c5ccc(F)cc5)n3)OC[C@]4(C)C(N)=O)C(F)(F)F)ccc2OC2CC2)cn1 [Example 137] |  | < 200 | < 500
16 | CN(C)C(=O)COc1cc(C(=O)NC[C@](O)(c2cc3c(c(-c4ccc(F)cc4)n2)OC[C@]3(C)C(N)=O)C(F)(F)F)cc2cccnc12 [Example 373] |  | < 200 | > 500
17 | C[C@](O)(CNC(=O)c1cc(OC2CC2)c2ncccc2c1)c1cc2c(c(-c3ccc(F)cc3)n1)OC[C@]2(C)C(N)=O [Example 265] |  | < 200 | < 500
18 | Cc1ncc(-c2cc(C(=O)NC[C@](O)(c3cc4c(c(-c5ccc(F)cc5)n3)OC[C@]4(C)C(N)=O)C(F)(F)F)ccc2OC2CC2)s1 [Example 126] |  | < 200 | > 500
19 | C[C@]1(C(N)=O)COc2c1cc([C@@](O)(CNC(=O)c1ccc3nc(N)sc3c1)C(F)(F)F)nc2-c1ccc(F)cc1 [Example 429] |  | < 200 | > 500
20 | C[C@]1(C(=O)NCCCNC(N)=O)COc2c1cc([C@@](O)(CNC(=O)c1cc(OC3CC3)c3ncccc3c1)C(F)(F)F)nc2-c1ccc(F)cc1 [Example 479] |  | < 200 | > 500
21 | C[C@]1(C(N)=O)COc2c1cc([C@@](O)(CNC(=O)c1cc(Nc3cnccn3)c3ncccc3c1)C(F)(F)F)nc2-c1ccc(F)cc1 [Example 341] |  | < 200 | > 500
22 | CNC(=O)CNC(=O)[C@@]1(C)COc2c1cc([C@@](O)(CNC(=O)c1cc(OC3CC3)c3ncccc3c1)C(F)(F)F)nc2-c1ccc(F)cc1 [Example 473] |  | < 200 | > 500
23 | C[C@]1(C(N)=O)COc2c1cc([C@@](O)(CNC(=O)c1cc(-c3cccnc3)c3ncccc3c1)C(F)(F)F)nc2-c1ccc(F)cc1 [Example 350] |  | < 200 | > 500
24 | COc1cc(C(=O)NC[C@](O)(c2cc3c(c(-c4ccc(F)c(F)c4)n2)OC[C@]3(C)C(N)=O)C(F)(F)F)ccc1OC1CC1 [Example 89] |  | < 200 | < 500
25 | C[C@]1(C(N)=O)COc2c1cc([C@@](O)(CNC(=O)c1cc(Nc3ncccn3)c3ncccc3c1)C(F)(F)F)nc2-c1ccc(F)cc1 [Example 337] |  | < 200 | > 500
26 | C[C@]1(C(N)=O)COc2c1cc([C@@](O)(CNC(=O)c1ccc(OC3CC3)c(-c3ccncn3)c1)C(F)(F)F)nc2-c1ccc(F)cc1 [Example 116] |  | < 200 | > 500
27 | COc1cc(C(=O)NC[C@](O)(c2cc3c(c(-c4ccc(F)cc4)n2)OC[C@]3(C)C(N)=O)C(F)(F)F)cc2sc(C)nc12 [Example 562] |  | < 200 | < 500
28 | C[C@]1(C(N)=O)COc2c1cc([C@@](O)(CNC(=O)c1ccc(OC3CC3)c(N3CCC3)c1)C(F)(F)F)nc2-c1ccc(F)cc1 [Example 136] |  | < 200 | > 500
